In assay [1] the test system is ribonuclear foci in MyoD transformed fibroblasts derived from DM1 patients (>300 CTG repeats). Description: FISH detection of aberrant ribonuclear foci in human DM1 fibroblasts. The conditions noted are these: 24 h treatment, vs no treatment. It is filed as cell-based. How it is done:
FIG. 1. Quantification of aberrant ribonuclear foci (DM1 disease hallmark) in human DM1 fibroblasts. Treatments with the compounds of Formula I were performed (VLT002, VLT015, VLT025, VLT024, VLT042, VLT040, VLT023, VLT026, VLT048, VLT045, VLT043, VLT049, VLT051 VLT053 and VLT056). (A) Number (medium) of foci/nuclei (No treatment vs. compound treatment). (B) Number of cells without foci (No treatment vs. compound treatment). n=100 minimum number of cells counted. T-Student test: * indicates p-value <0.05 ** p-value p<0.005 *** p-value p<0.0005.
After screening identification of the compounds of the invention (see FIG. 10), main validation was done using Fluorescence In Situ Hybridization (FISH) detection of aberrant aggregation of ribonuclear foci in cell lines from DM1 patients (see FIG. 1) and in DM1 Drosophila model (see FIG. 2) (Garcia-Lopez et al., Proc. Natl. Acad. Sci. USA. 108(29):11866-71 (2011)). Briefly, regarding human cells, it was used MyoD transformed fibroblasts derived from clinically diagnosed DM1 patients (>300 CTG repeats) routinely growing in DMEM supplemented with 10% heat-inactivated fetal bovine serum and maintained at 37° C. in a humidified incubator containing 5% CO2. To detect ribonuclear foci, cells were cultured over cover-slides in flat bottomed 24-well plates, after 24 h compounds of the invention were added to the cells at desiderate concentration, 24 h later in situ hybridization was done by fixing with 4% paraformaldehyde (PFA) 15 min at room temperature, and washed and stored in 70% ethanol. Cells were rehydrated with PBS and pre-hybridized 10 min at room temperature with a pre-hybridization buffer (formamide 30%, 2× saline-sodium citrate buffer (SSC)). Hybridization was performed in a light-proof wet chamber using the same pre-hybridization buffer supplemented with 0.02% bovine serum albumin (BSA), 1 mg/ml yeast tRNA (Sigma), 2 mM sodium (meta)vanadate, 1 mg/ml sperm DNA, 10% dextran sulfate and 1 ng/μl RNase free HPCL-purified Cy3-labeled (CAG)10 RNA. After hybridization cells were washed 2×15 minutes at 45° C. with the pre-hybridization buffer and washed with 1×PBS at room temperature. Slides were mounted with Vectashield solution with DAPI and number of foci by cell and number of cells with/without foci (see FIG. 1) were counted in a minimum of 100 cells for each treatment and concentration tested with a 63× objective in a Leica microscope. Same FISH approach was performed in Drosophila DM1 flies, where thoraces were embedded in OCT and transversal sections were taken with a Leica CM 15105 cryomicrotome. Sections were processed for in situ hybridization and counting for number of foci by cell with the same Cy3-labeled (CAG)10 probe (see FIG. 2).

The subject of the next assay is (CUG)23 RNA hairpin. The assay is described as follows: 2-Aminopurine fluorescence assay of hairpin RNA unfolding. The conditions noted are these: (CUG)23 RNA, dose-range. Format: biochemical. On the procedure: FIG. 7. […] Measurements of the fluorescence emitted (Y-axis), measured as relative fluorescence units (RFU), by 2-aminopurine in a (CUG)23 RNA (1 μM) in the presence of different compounds (dose-range approach), relative to the fluorescence emitted by the free RNA. […] These effects were not observed when incubating the RNA with DMSO (not shown), or with the small molecule pentamidine, published as a compound able to disrupt MBNL1 binding to CUG hairpins (Warf M B et al. Proc. Natl. Acad. Sci. USA 106:18551-56 (2009)). * indicates p-value <0.05 ** p-value <0.005 *** p-value p<0.0005.
Aminopurine Fluorescence assay to detect hairpin double strand RNA unfolding. An aliquot of 2-aminopurine (2AP)-CUG23 RNA (1 μM in binding buffer) was heated at 90° C. for 3 min, placed on ice, and further diluted to 30 nM in a final volume of 1 mL in binding buffer.

Assay [2] has as its system indirect flight muscles of MHC-Gal4/+; UAS-i480CTGs/+ flies. Description: Drosophila muscle histology (IFM muscle area). Format: in vivo. The conditions noted are these: 100 μM, adult IFM. On the procedure: FIG. 3. Representative bright field microscopy images of transversal sections of resin-embedded adult IFM (indirect flight muscles) of MHC-Gal4/+; UAS-i480CTGs/+ flies that had been treated with DMSO (left) or with VLT024 (100 μM) (right).
Additional assays involved: • Reverse Transcription-PCR (RT-PCR) to detect levels of normal/aberrant splicing events in specific genes. This approach was performed in human cells from patients (see FIG. 5) or from DM1 mouse (see FIG. 8 up) (HSA^LR, Mankodi A et al., Science, 289:1769-1773 (2000)) tissues (skeletal muscle), from which total RNA was extracted from ˜0.5-1.5×10^5 cells using the Zygem Tissue Plus kit. Serca 1, Cypher or cTNNT genes reverse transcription were performed and quantification of normal/aberrant spliced band forms was obtained (ImageJ software) after running PCR products in 2% agarose gels. As shown in FIGS. 5 and 8 compounds of the invention are able to recover disease phenotypes. • Drosophila Muscle Histology, where five-day old Drosophila thoraces were embedded in Epon for transversal, semi-thin sectioning. Muscle area was quantified (see FIG. 3) by binarizing images (equal dimensions) and quantifying pixels (%) within muscle tissue with ImageJ software. […] A minimum of 8 flies were analyzed in each case.

The subject of another assay is FAM-(CUG)10 RNA. Description: Gel retardation assay (fluorescence EMSA) with FAM-(CUG)10. It is filed as binding. How it is done: FIG. 6. Study of the binding of some compounds of Formula I (VLT002, VLT025 and VLT026) to FAM-(CUG)10 (repeat tract present in DM1, HDL2, SCA8 diseases) by means of gel retardation assays.
Fluorescence Electrophoretic Mobility Shift Assay to test RNA-compound binding. Briefly, an aliquot of carboxyfluorescein (FAM)-CUG10 RNA (DM1, HDL2, SCA8; see FIG. 6) was heated at 70° C. for 5 min and diluted to 300 nM. The binding reaction with compounds was then carried out as described in (Garcia-Lopez A et al. Proc. Natl. Acad. Sci. USA. 108(29):11866-71 (2011)). The reaction mix was loaded onto 8% polyacrylamide nondenaturing gels, and electrophoresis was conducted at 4° C. in TB 1× for approximately 30 min at 240V, followed by fluorescence visualization. Quantification of the free RNA band intensity was carried out using the ImageJ software. A non-linear regression analysis was used to calculate EC50, based on a total of three experimental replicates. Same approach was developed with (FAM)-CCUG8 (DM2), CAG10 (SCA3), CGG10 (FXTAS), GGGGCC5 (ALS/FSD), UGGAA6 (SCA31) probes (see FIG. 9).

In another assay the test system is MBNL1. The assay is described as follows: Visualization and quantification of MBNL1 release in DM1 fibroblasts. It is filed as cell-based, human. The conditions noted are these: 100 μM. How it is done: FIG. 4. Visualization and quantification of MBNL1 release (A). Visualization of MBNL1 release for VLT002: Upper row: Untreated DM1 fibroblasts with MBNL1 localizing as ribonuclear foci (see dots in middle and right pictures) to the nucleus (DAPI, detected as gray spherical shadow in left and right pictures). […] (B) Quantification of the area (into the nucleus), where MBNL1 present (Photoshop software), reflects the MBNL1 release after VLT002, VLT025, VLT045, VLT049 and VLT040 treatment (100 μM).
At the same time human cells were recollected for foci counting. Some (150,000-300,000) were prepared for Muscleblind (MBNL1) detection (see FIG. 4). After PBS washes, cells were probed overnight, at 4° C. with anti-MBNL1 antibody (1:5000 dilutions, A2764 antibody) in 1×PBS. After washing cells with 1×PBS, cells were incubated with goat anti-rabbit Alexa 488 (1:500 dilution) for 2 h at RT. Cells were washed 2 times, for 10 min at room temperature with 1×PBS and then mounted onto glass slides using a hard-set mounting media that contains DAPI (Vectashield). Cells were imaged on a Leica microscope.

For assay [3] the following is noted: cited from earlier work.
[4] abbreviates: dose range of 5-40 mg/kg, compared to mexiletine.

Like-named read-outs stand apart in the source and are kept apart here.

Take `COc1cc2c(cc1O)CC1c3c(cc(O)c(OC)c3-2)CCN1C` (stereo not drawn) [VLT015]: the “aberrant ribonuclear foci: number of foci/nuclei (A) and/or number of cells without foci (B)” value in assay [1] is on record as “significant reduction”. As for `COc1cc(CCN(C)C)c2ccc3c(c2c1OC)=CC(OC)C(OC)C=3` (stereo not drawn) [VLT023], the “modification of the hairpin loops formed by the CUG repeats (2-AP fluorescence)” value with (CUG)23 RNA hairpin was “modify the hairpin loops”. Besides, the “aberrant ribonuclear foci: number of foci/nuclei (A) and/or number of cells without foci (B)” value in assay [1] is reported as “significant reduction”. Turning to `COc1cc2ccc3c(CC[N+](C)(C)C)cc(OC)c(OC)c3c2cc1OC` [VLT024], in assay [2], the “muscle area relative to DMSO-treated flies” value is “significant increase”. In addition, the “aberrant ribonuclear foci: number of foci/nuclei (A) and/or number of cells without foci (B)” value in assay [1] is reported as “significant reduction”.

For `COc1cc2c(ccc3c(CCN(C)Cc4ccccc4)cc(OCc4ccccc4)c(OC)c32)cc1OCc1ccccc1` [VLT026], the “binding to FAM-CUG10” value with FAM-(CUG)10 RNA is on record as “bind to FAM-CUG10”. For the same compound, the “aberrant ribonuclear foci: number of foci/nuclei (A) and/or number of cells without foci (B)” value in assay [1] is listed as “significant reduction”. As to `C[N+]1(C)CCc2cc3c(c4c2c1cc1ccccc14)OCO3` [VLT042], the “aberrant ribonuclear foci: number of foci/nuclei (A) and/or number of cells without foci (B)” value in assay [1] was “significant reduction”. On the same count and under the same terms, then `CC(=O)N1CCc2cc3c(c4c2C1Cc1ccccc1-4)OCO3` (stereo not drawn) [VLT043], with “significant reduction”.

For `O=C1c2ccccc2-c2c3c(cc4ccnc1c24)OCO3` [VLT045], in the assay on MBNL1, the “MBNL1 sequestration / MBNL1 release (nuclear area where MBNL1 present)” value was “relieve MBNL1 sequestration” and the “formation of foci (MBNL1 ribonuclear foci)” value was “effectively reduce the formation of foci”. In addition, the “aberrant ribonuclear foci: number of foci/nuclei (A) and/or number of cells without foci (B)” value in assay [1] was “significant reduction”. With `CCNC(=O)Oc1cc2c(cc1OC)-c1c(OC)c(OC(=O)NCC)cc3c1C(C2)N(C)CC3` (stereo not drawn) [VLT048], the “aberrant ribonuclear foci: number of foci/nuclei (A) and/or number of cells without foci (B)” value in assay [1] is listed as “significant reduction”. For the compound `COc1cc2c3c(c1OC)-c1ccccc1CC3N(C)CC2` (stereo not drawn) [VLT049], in the assay with MBNL1, the “MBNL1 sequestration / MBNL1 release (nuclear area where MBNL1 present)” value is on record as “relieve MBNL1 sequestration” and the “formation of foci (MBNL1 ribonuclear foci)” value is recorded as “effectively reduce the formation of foci”. In addition, the “aberrant ribonuclear foci: number of foci/nuclei (A) and/or number of cells without foci (B)” value in assay [1] was “significant reduction”. For `COc1cc(CC[N+](C)(C)C)c2ccc3ccccc3c2c1OC` [VLT051], in assay [1], the “aberrant ribonuclear foci: number of foci/nuclei (A) and/or number of cells without foci (B)” value is recorded as “significant reduction”. Take `C[N+](C)(C)CCc1cc(O)c(O)c2c1ccc1ccccc12` [VLT053]: in assay [1], the “aberrant ribonuclear foci: number of foci/nuclei (A) and/or number of cells without foci (B)” value is listed as “significant reduction”. Consider `CC(=O)Oc1cc2ccc3c(CCN(C)C)cc(OC(C)=O)c(OC(C)=O)c3c2cc1OC(C)=O` [VLT056], for which, in assay [1], the “aberrant ribonuclear foci: number of foci/nuclei (A) and/or number of cells without foci (B)” value is listed as “significant reduction”.

Consider `CC(C)(C)NCC(O)c1cc(Cl)c(N)c(Cl)c1` (stereo not drawn) [clenbuterol], for which the antimyotonic effect entry in assay [3] (setting [4]) is listed as “time-dependent antimyotonic effect”. In the case of `CC(C)(C)NCC(O)COc1cccc2c1CC(O)C(O)C2` (stereo not drawn) [nadolol], the antimyotonic effect entry in assay [3] (in vivo) was “did not show any significant antimyotonic effect”. Turning to `N=C(N)c1ccc(OCCCCCOc2ccc(C(=N)N)cc2)cc1` [pentamidine, reference compound], the “modification of the hairpin loops formed by the CUG repeats (2-AP fluorescence)” value in the assay with (CUG)23 RNA hairpin is “not observed”. Consider `CC(C)NCC(O)COc1cccc2ccccc12` (stereo not drawn) [propranolol], for which the antimyotonic effect entry in assay [3] (setting [4]) is “time-dependent antimyotonic effect”. For the compound `CC(C)(C)NCC(O)c1ccc(O)c(CO)c1` (stereo not drawn) [salbutamol], the antimyotonic effect result in assay [3] (in vivo) is on record as “did not show any significant antimyotonic effect”.

(Values after patent US20160194274A1, “PHENANTHRENE DERIVATIVES FOR USE AS MEDICAMENTS” (VALENTIA BIOPHARMA, priority 2012, published 2016).)
